Tested on: Transport facilitation protein genes
Assay: DNA chip mRNA expression in yeast, transport facilitation protein genes (Table 5)
Type: cell-based, Saccharomyces cerevisiae S288C
Procedure, shortened: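 Whole-genome yeast DNA chip hybridization (65° C., >12 h) of Cy-labeled cDNA from S288C cells exposed 2 h at 25° C. to a sub-lethal toxicant dose in YPD; value is intensity relative to chemical-free control.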

SMILES: Oc1cc(Cl)c(Cl)cc1Cl [(6), 2,4,5-trichlorophenol]
- The level of expressed mRNA in the presence of chemical substance/The level of expressed mRNA in the absence of chemical substance (yeast gene YGR281W): 1.9
- The level of expressed mRNA in the presence of chemical substance/The level of expressed mRNA in the absence of chemical substance (yeast gene YHL035C): 4.1
- The level of expressed mRNA in the presence of chemical substance/The level of expressed mRNA in the absence of chemical substance (yeast gene YHL040C): 7.3
- The level of expressed mRNA in the presence of chemical substance/The level of expressed mRNA in the absence of chemical substance (yeast gene YHL047C): 8.4
- The level of expressed mRNA in the presence of chemical substance/The level of expressed mRNA in the absence of chemical substance (yeast gene YHR026W): 1.3
- The level of expressed mRNA in the presence of chemical substance/The level of expressed mRNA in the absence of chemical substance (yeast gene YHR092C): 1.7
- The level of expressed mRNA in the presence of chemical substance/The level of expressed mRNA in the absence of chemical substance (yeast gene YHR094C): 1.6
- The level of expressed mRNA in the presence of chemical substance/The level of expressed mRNA in the absence of chemical substance (yeast gene YHR175W): 1.0
- The level of expressed mRNA in the presence of chemical substance/The level of expressed mRNA in the absence of chemical substance (yeast gene YIL006W): 0.3
- The level of expressed mRNA in the presence of chemical substance/The level of expressed mRNA in the absence of chemical substance (yeast gene YIL022W): 1.2
- The level of expressed mRNA in the presence of chemical substance/The level of expressed mRNA in the absence of chemical substance (yeast gene YIL056W): 1.0
- The level of expressed mRNA in the presence of chemical substance/The level of expressed mRNA in the absence of chemical substance (yeast gene YIL088C): 2.2
- The level of expressed mRNA in the presence of chemical substance/The level of expressed mRNA in the absence of chemical substance (yeast gene YJL034W): 1.1
- The level of expressed mRNA in the presence of chemical substance/The level of expressed mRNA in the absence of chemical substance (yeast gene YJL212C): 1.1
- The level of expressed mRNA in the presence of chemical substance/The level of expressed mRNA in the absence of chemical substance (yeast gene YJL219W): 1.5
- The level of expressed mRNA in the presence of chemical substance/The level of expressed mRNA in the absence of chemical substance (yeast gene YJR077C): 0.9
- The level of expressed mRNA in the presence of chemical substance/The level of expressed mRNA in the absence of chemical substance (yeast gene YJR106W): 1.2
- The level of expressed mRNA in the presence of chemical substance/The level of expressed mRNA in the absence of chemical substance (yeast gene YJR121W): 1.5
- The level of expressed mRNA in the presence of chemical substance/The level of expressed mRNA in the absence of chemical substance (yeast gene YKL016C): 0.8
- The level of expressed mRNA in the presence of chemical substance/The level of expressed mRNA in the absence of chemical substance (yeast gene YKL146W): 1.3
- The level of expressed mRNA in the presence of chemical substance/The level of expressed mRNA in the absence of chemical substance (yeast gene YKR039W): 2.8
- The level of expressed mRNA in the presence of chemical substance/The level of expressed mRNA in the absence of chemical substance (yeast gene YKR067W): 1.8
- The level of expressed mRNA in the presence of chemical substance/The level of expressed mRNA in the absence of chemical substance (yeast gene YLL028W): 1.7
- The level of expressed mRNA in the presence of chemical substance/The level of expressed mRNA in the absence of chemical substance (yeast gene YLL055W): 1.4
- The level of expressed mRNA in the presence of chemical substance/The level of expressed mRNA in the absence of chemical substance (yeast gene YLR081W): 0.9
- The level of expressed mRNA in the presence of chemical substance/The level of expressed mRNA in the absence of chemical substance (yeast gene YLR295C): 1.1
- The level of expressed mRNA in the presence of chemical substance/The level of expressed mRNA in the absence of chemical substance (yeast gene YLR348C): 1.9
- The level of expressed mRNA in the presence of chemical substance/The level of expressed mRNA in the absence of chemical substance (yeast gene YLR378C): 1.2
- The level of expressed mRNA in the presence of chemical substance/The level of expressed mRNA in the absence of chemical substance (yeast gene YMR011W): 0.6
- The level of expressed mRNA in the presence of chemical substance/The level of expressed mRNA in the absence of chemical substance (yeast gene YMR058W): 2.6
- The level of expressed mRNA in the presence of chemical substance/The level of expressed mRNA in the absence of chemical substance (yeast gene YMR162C): 1.0
- The level of expressed mRNA in the presence of chemical substance/The level of expressed mRNA in the absence of chemical substance (yeast gene YMR203W): 1.1
- The level of expressed mRNA in the presence of chemical substance/The level of expressed mRNA in the absence of chemical substance (yeast gene YNL055C): 2.6
- The level of expressed mRNA in the presence of chemical substance/The level of expressed mRNA in the absence of chemical substance (yeast gene YNL259C): 3.9
- The level of expressed mRNA in the presence of chemical substance/The level of expressed mRNA in the absence of chemical substance (yeast gene YNR072W): 0.9
- The level of expressed mRNA in the presence of chemical substance/The level of expressed mRNA in the absence of chemical substance (yeast gene YOL119C): 0.9
- The level of expressed mRNA in the presence of chemical substance/The level of expressed mRNA in the absence of chemical substance (yeast gene YOL156W): 1.2
- The level of expressed mRNA in the presence of chemical substance/The level of expressed mRNA in the absence of chemical substance (yeast gene YOL163W): 0.5
- The level of expressed mRNA in the presence of chemical substance/The level of expressed mRNA in the absence of chemical substance (yeast gene YOR035C): 1.9
- The level of expressed mRNA in the presence of chemical substance/The level of expressed mRNA in the absence of chemical substance (yeast gene YOR130C): 1.6
- The level of expressed mRNA in the presence of chemical substance/The level of expressed mRNA in the absence of chemical substance (yeast gene YOR153W): 7.4
- The level of expressed mRNA in the presence of chemical substance/The level of expressed mRNA in the absence of chemical substance (yeast gene YOR270C): 1.8
- The level of expressed mRNA in the presence of chemical substance/The level of expressed mRNA in the absence of chemical substance (yeast gene YOR273C): 0.4
- The level of expressed mRNA in the presence of chemical substance/The level of expressed mRNA in the absence of chemical substance (yeast gene YOR316C): 0.9
- The level of expressed mRNA in the presence of chemical substance/The level of expressed mRNA in the absence of chemical substance (yeast gene YOR328W): 2.9
- The level of expressed mRNA in the presence of chemical substance/The level of expressed mRNA in the absence of chemical substance (yeast gene YOR332W): 1.8
- The level of expressed mRNA in the presence of chemical substance/The level of expressed mRNA in the absence of chemical substance (yeast gene YOR348C): 0.7
- The level of expressed mRNA in the presence of chemical substance/The level of expressed mRNA in the absence of chemical substance (yeast gene YPL036W): 0.7
- The level of expressed mRNA in the presence of chemical substance/The level of expressed mRNA in the absence of chemical substance (yeast gene YPL134C): 1.2
- The level of expressed mRNA in the presence of chemical substance/The level of expressed mRNA in the absence of chemical substance (yeast gene YPL265W): 2.3
- The level of expressed mRNA in the presence of chemical substance/The level of expressed mRNA in the absence of chemical substance (yeast gene YPL271W): 3.3
- The level of expressed mRNA in the presence of chemical substance/The level of expressed mRNA in the absence of chemical substance (yeast gene YPR124W): 2.0
- The level of expressed mRNA in the presence of chemical substance/The level of expressed mRNA in the absence of chemical substance (yeast gene YPR192W): 0.9
- The level of expressed mRNA in the presence of chemical substance/The level of expressed mRNA in the absence of chemical substance (yeast gene YPR194C): 1.5

From patent US8192962B2, “Processes for detecting toxic substances” (Daikin Industries, Ltd., priority 2001, dated 2012)
